Data set [1] has as its system humans. The conditions noted are these: cited from earlier work.
The conditions of data set [2]: cited from earlier work.
For data set [3] the following is noted: higher dose, 0.4 mg/kg bolus (G-S FIG. 2A); cited from earlier work.
Data set [4] can be described thus: Transfer rate constants of the Gallimore-Strassman two-compartment model, calculated from G-S Table 2. On the set-up: species or system human. The source says: For consistency with the G-S model, referred to here as FIG. 1 is the (prior art) model from the 2016 paper by Gallimore Strassman (prior art), where: • k10 rate of elimination from the central compartment (min^−1) • k12 transfer rate from central to peripheral compartment (min^−1) • T same as k12 • k21 transfer rate from peripheral to central compartment (min^−1) • K1e transfer rate from central compartment to effect site (min^−1) • Ke0 rate of elimination of drug from the effect site (min^−1) E same as ke0 • CT plasma concentration (mg/ml) • RT rate at which drug reaches the effect site (mg/min) • [C] DMT concentration in the central compartment (mg/ml) • [P] DMT concentration in the peripheral compartment (mg/ml) […].
It should be appreciated that the notation used in the prior art (G-S) is very different from the notation used herein in developing the models in the present disclosure. In G-S (p. 5), E is used for the elimination rate, without it being made clear if this is the elimination rate from the effect site or from the central compartment. Also, T is used interchangeably with k12 from G-S FIG. 1. The extra parameters in G-S Table 2, Vc (L), Vp (L), Km (mg/L), Vm (mg/min), Q12 (L/min) are not defined, modulo a minor footnote (bottom of p. 4) stating that:

The next data set concerns infusion veins. The data set is described as follows: Venous response to intravenous administration of DMT. The format is in vivo. The source says: A second, and perhaps more serious issue, with the Gallimore Strassman paper is the administration of DMT intravenously. […] This is especially true of serotonergic drugs which, as noted, can be phlebitic at the site of administration. This in combination with probable chemical irritation, even with iso-osmolar concentrations buffered to a physiologic pH (using DMT fumarate or similar salt), intravenous thrombophlebitis can occur at a rate

The subject of data set [5] is subject. The note with it: believed, not measured; cited from earlier work.
Data set [6] relates to humans. The note with it: IV single bolus; cited from earlier work.
The subject of data set [7] is subject. The data set is described as follows: Intramuscular bolus plus infusion of DMT, subject-reported effects. The class given is in vivo, human. As for the experimental part:
In intramuscular infusion, the muscle is first loaded which then diffuses into the peripheral soft tissues, the lymphatics and blood, and then the CNS. The result is a very gentle rise in effect, with the earliest effects usually noticed within the first 2 minutes, and the subject experiencing threshold effects somewhere between 5 and 15 minutes. The intensification of the experience is slow, and while there is some overshoot, it is quite manageable, and usually lasts for only minutes. The key here is turning the pump off when the ideal state is reached, or at the earliest sign of being above the ideal level and reporting when those levels have been achieved.
The same assumptions for IV infusion are made with IM infusion, a 75 kg individual who identifies smoking 25 mg of DMT as an ideal dose. A muscle should be chosen for access with the infusion needle. While any muscle will work, the most favorable option is probably the anterolateral thigh. This allows the patient to be positioned supine comfortably. If the anterolateral thigh is chosen, appropriate garments should be worn by the patient to expose the thigh in a manner that is suitable for access. […]
When the subject is ready, the bolus dose is administered over a short amount of time, preferably about 60 seconds, from time t=0 to t=1 minute. […]

Another data set concerns vein. The data set is described as follows: Additives to the intravenous DMT infusion, flow rate and venous injury. The class given is in vivo. The conditions noted are these: magnesium 0.1 mg/mL to 100 mg/mL in DMT infusion or maintenance line. An excerpt:
In this respect, the inventors addressed the following goals: • 1. […] A method for combining goals 1 and/or 2 with nitroglycerine ointment on the vein to be cannulated prior to gaining intravenous access, which improves vein patency and dilution from blood flow as well as normal saline. • 4. A method for creating an injectable form of a DMT salt such as fumarate, or freebase DMT in a solution or suspension or emulsion in an iso-osmolar or near iso-osmolar carrier such as hyaluronic acid or polyethylene glycol, as to minimize molecular interaction with the walls and endothelium of the peripheral vasculature, while maintaining water soluble or miscible properties as to not adversely affect the pharmacokinetics. • 5. A method for utilizing goal 4, with any other drug or substance that may cause venous irritation, to minimize the risk of thrombophlebitis, such as nanoparticles or crystals in suspension, or similarly, chemotherapeutic drugs, anesthetic agents and the like.

Setting [8] is: inhaling vaporized or smoked DMT, or single IV bolus.

These results are taken from US20240390581A1, “METHOD AND APPARATUS FOR A STEADY STATE INT[…] OF SEROTONERGIC DRUGS” (PSOULMED, LLC, priority 2021, published 2024).

`CN(C)CCc1c[nH]c2ccccc12` [DMT, N,N-dimethyltryptamine]: in the data set with humans [1] (setting [8]), the duration of experience was 10 to 15 min and the “time of peak experience” value is recorded as “around 5 minutes”. The “effect of oral ingestion” value in the data set with humans [1] (oral ingestion, rapid metabolism by monoamine oxidase) was “virtually no effect”. The biological half-life entry in data set [2] (in vivo) is recorded as “in the range of minutes”. For the same compound, the “half-life of injected DMT” value in data set [2] (injected) is given as “about 15 minutes”. Also, the blood concentration in data set [3] is 100 ng/mL. Moreover, in [4] (0.2 mg/kg), the “k12, transfer rate from central to peripheral compartment” value was 0.3286 min⁻¹ and the “k21, transfer rate from peripheral to central compartment” value is 0.2 min⁻¹. Besides, in data set [4] (0.4 mg/kg), the “k12, transfer rate from central to peripheral compartment” value is 0.6021 min⁻¹ and the “k21, transfer rate from peripheral to central compartment” value is 0.1647 min⁻¹. Further, the “venous effects of intravenous administration” value with infusion veins was “causing vasoconstriction, phlebitis and eventual closing of the infusion veins”. Besides, in the data set on subject [5], the “CNS concentration equating to a full experience” value is “roughly 100 ng/ml” and the “CNS concentration equating to a threshold experience” value is “roughly 60 ng/ml”. Moreover, in the data set on humans [6], the “onset of psychological effects” value was “almost immediately after administration”, the “time by which psychological effects were almost completely resolved” value was not above 30 minutes and the “time of peak psychological effects” value is 90 to 120 seconds. Moreover, in the data set on subject [7], the “time to earliest drug effects” value was not above 2 min. The “time for drug effects to fully abate after pump is turned off” value in the data set on subject [7] (pump off) was “within about an hour or less”.

Regarding `[Mg+2]` [magnesium], the “effect on venous injury” value in the data set with vein is “decrease venous injury”.
